Data: ChEMBL document CHEMBL6092203, “Discovery of Novel PROTAC-Based HPK1 Degraders with High Potency and Selectivity for Cancer Immunotherapy” (J Med Chem, 2024)

Key:
[1] = in vivo; settings: Sprague-Dawley, rat, po, 1 mg/kg
[2] = test system: MC-38; experiment: Antitumor activity against mouse MC38 cells implanted in C57BL/6J mouse assessed as tumor weight inhibition rate at 100 mg/kg, po QD administered for 4 weeks; assay type: functional; parameters: scale not given: the % may be the effect or the level left
[3] = Drug metabolism in dog hepatocytes assessed as phase 1 metabolites formation at 10 uM incubated for 120 mins by UHPLC-UV/MS/MS method; assay type: ADME, cell-based, Canis lupus familiaris, Hepatocyte; settings: 2 h
[4] = Drug distribution in rat liver measured after 0.5 to 6 hrs; assay type: ADME, tissue-based; settings: in vivo, time 0.5-6 hrs
[5] = Metabolic stability in rat liver microsomes assessed as intrinsic clearance at 1 uM incubated for 45 mins by LC-MS/MS method; assay type: ADME, Microsome; settings: read-out: CLH
[6] = Volume of distribution at steady state in C57BL/6J mouse at 2 mg/kg, iv measured upto 24 hrs by LC-MS analysis; assay type: ADME, organism-based; settings: in vivo, read-out: Vdss
[7] = Metabolic stability in dog liver microsomes assessed as intrinsic clearance at 1 uM incubated for 45 mins by LC-MS/MS method; assay type: ADME, Canis lupus familiaris, Microsome; settings: read-out: CLH
[8] = test system: MC-38; experiment: Antitumor activity against mouse MC38 cells implanted in C57BL/6J mouse assessed as tumor growth inhibition at 0.1 mg/kg, po BID measured after 4 weeks; assay type: functional; settings: MC-38, 672 h, read-out: TGI
[9] = AUCinfinity in Sprague-Dawley rat at 1 mg/kg, po measured upto 24 hrs by LC-MS analysis; assay type: ADME, organism-based; settings: in vivo
[10] = Apparent permeability across apical to basolateral side in human Caco-2 cells at 10 uM incubated for 2 hrs by LC-MS/MS analysis; assay type: ADME, cell-based
[11] = Apparent permeability across basolateral to apical side in human Caco-2 cells at 10 uM incubated for 2 hrs by LC-MS/MS analysis; assay type: ADME, cell-based
[12] = Induction of INFgamma secretion in human T-cells incubated for 48 hrs by ELISA; assay type: functional, cell-based; settings: T-cell
[13] = Initial plasma concentration in Beagle dog at 1 mg/kg, iv measured upto 24 hrs by LC-MS analysis; assay type: ADME, organism-based, Canis lupus familiaris; settings: in vivo
[14] = test system: MC-38; experiment: Antitumor activity against mouse MC38 cells implanted in C57BL/6J mouse assessed as tumor weight inhibition rate at 0.5 mg/kg, po BID measured after 4 weeks; assay type: functional; parameters: scale not given: the % may be the effect or the level left
[15] = test system: MC-38; experiment: Antitumor activity against mouse MC38 cells implanted in C57BL/6J mouse assessed as reduction in tumor volume at 1 mg/kg, po BID administered for 3 to 4 weeks (reference value: 1549.22 +/- 217.92 mm3); assay type: functional; settings: time 3-4 weeks
[16] = Metabolic stability in mouse liver microsomes assessed as intrinsic clearance at 1 uM incubated for 45 mins by LC-MS/MS method; assay type: ADME, Microsome; settings: read-out: CLH
[17] = Induction of p-SLP76 at Ser376 protein degradation in human Jurkat cells incubated for 24 hrs by Western blotting analysis; assay type: cell-based
[18] = Apparent volume of distribution in mouse at 2 mg/kg, iv measured upto 24 hrs by LC-MS analysis; assay type: ADME, organism-based; settings: in vivo
[19] = in vitro; settings: human, hepatocytes
[20] = Tmax in Beagle dog at 5 mg/kg, po measured upto 24 hrs by LC-MS analysis; assay type: ADME, organism-based, Canis lupus familiaris; settings: in vivo
[21] = Tmax in male Sprague-Dawley rat at 2 mg/kg/day, po measured at day 14; assay type: ADME, organism-based; settings: in vivo, time 14 day
[22] = in vivo; settings: male, Sprague-Dawley, rat, po, 2 mg/kg
[23] = Plasma protein binding in human at 10 uM incubated for 6 hrs by equilibrium dialysis based LC-MS/MS method; assay type: ADME, cell-free; settings: read-out: PPB
[24] = AUCinfinity in Beagle dog at 1 mg/kg, iv measured upto 24 hrs by LC-MS analysis; assay type: ADME, organism-based, Canis lupus familiaris; settings: in vivo
[25] = Toxicity in C57BL/6J mouse assessed as change in body weight at 100 mg/kg, po qd measured after 28 days in presence of 5 mg/kg anti-PD1; assay type: organism-based; settings: in vivo, 672 h, time 28 day
[26] = in vivo; settings: female, Sprague-Dawley, rat, po, 2 mg/kg
[27] = Drug distribution in rat kidney measured after 0.5 to 6 hrs; assay type: ADME, tissue-based; settings: in vivo, time 0.5-6 hrs
[28] = test system: MC-38; experiment: Antitumor activity against mouse MC38 cells implanted in po dosed C57BL/6J mouse assessed as tumor growth inhibition administered for 3 to 4 weeks; assay type: functional, organism-based; settings: time 3-4 weeks
[29] = Volume of distribution at steady state in Sprague-Dawley rat at 2 mg/kg, iv measured upto 24 hrs by LC-MS analysis; assay type: ADME, organism-based; settings: in vivo, read-out: Vdss
[30] = Clearance in Sprague-Dawley rat at 2 mg/kg, iv measured upto 24 hrs by LC-MS analysis; settings: in vivo
[31] = Half-life in C57BL/6J mouse at 10 mg/kg, po measured upto 24 hrs by LC-MS analysis; settings: in vivo
[32] = test system: MC-38; experiment: Antitumor activity against mouse MC38 cells implanted in C57BL/6J mouse assessed as reduction in tumor weight at 1 mg/kg, po BID administered for 3 to 4 weeks (reference value: 1.79 +/- 0.24 g); assay type: functional; settings: time 3-4 weeks
[33] = test system: MC-38; experiment: Synergistic antitumor activity against mouse MC38 cells implanted in C57BL/6J mouse assessed as tumor growth inhibition at 0.5 mg/kg, po bid measured after 4 weeks in presence of 5 mg/kg anti-PD1 and measured twice a week; assay type: functional; settings: MC-38, 672 h, read-out: TGI
[34] = test system: MC-38; experiment: Synergistic antitumor activity against mouse MC38 cells implanted in C57BL/6J mouse assessed as reduction in tumor weight at 0.5 mg/kg, po bid administered for 3 to 4 weeks in presence of 5 mg/kg anti-PD1 and measured twice a week (reference value: 1.79 +/- 0.24 g); assay type: functional; settings: time 3-4 weeks
[35] = Metabolic stability in human liver microsomes assessed as intrinsic clearance at 1 uM incubated for 45 mins by LC-MS/MS method; assay type: ADME, Microsome; settings: read-out: CLH
[36] = target: Protein cereblon/Mitogen-activated protein kinase kinase kinase kinase 1 (Homo sapiens, UniProt Q92918+Q96SW2); experiment: PROTAC activity at CRBN/HPK1 in human Jurkat cells assessed as maximum degradation incubated for 24 hrs by Western blotting analysis; assay type: cell-based
[37] = Toxicity in C57BL/6J mouse assessed as change in body weight at 0.1 to 1 mg/kg, po bid measured after 28 days; assay type: organism-based; settings: in vivo, 672 h, dose 0.1-1 mg/kg, time 28 day
[38] = Half-life in Beagle dog at 1 mg/kg, iv measured upto 24 hrs by LC-MS analysis; settings: in vivo
[39] = Drug distribution in rat lung measured after 0.5 to 6 hrs; assay type: ADME, tissue-based; settings: in vivo, time 0.5-6 hrs
[40] = Volume of distribution at steady state in Beagle dog at 1 mg/kg, iv measured upto 24 hrs by LC-MS analysis; assay type: ADME, organism-based, Canis lupus familiaris; settings: in vivo
[41] = Toxicity in C57BL/6J mouse assessed as change in body weight at 0.1 to 1 mg/kg, po bid measured after 28 days in presence of 5 mg/kg anti-PD1; assay type: organism-based; settings: in vivo, 672 h, dose 0.1-1 mg/kg, time 28 day
[42] = test system: MC-38; experiment: Antitumor activity against mouse MC38 cells implanted in C57BL/6J mouse assessed as tumor growth inhibition at 100 mg/kg, po QD administered for 4 weeks; assay type: functional; settings: MC-38, 672 h, read-out: TGI

Protein cereblon/Mitogen-activated protein kinase kinase kinase kinase 1, sequence (Q92918 whole entry, looked up): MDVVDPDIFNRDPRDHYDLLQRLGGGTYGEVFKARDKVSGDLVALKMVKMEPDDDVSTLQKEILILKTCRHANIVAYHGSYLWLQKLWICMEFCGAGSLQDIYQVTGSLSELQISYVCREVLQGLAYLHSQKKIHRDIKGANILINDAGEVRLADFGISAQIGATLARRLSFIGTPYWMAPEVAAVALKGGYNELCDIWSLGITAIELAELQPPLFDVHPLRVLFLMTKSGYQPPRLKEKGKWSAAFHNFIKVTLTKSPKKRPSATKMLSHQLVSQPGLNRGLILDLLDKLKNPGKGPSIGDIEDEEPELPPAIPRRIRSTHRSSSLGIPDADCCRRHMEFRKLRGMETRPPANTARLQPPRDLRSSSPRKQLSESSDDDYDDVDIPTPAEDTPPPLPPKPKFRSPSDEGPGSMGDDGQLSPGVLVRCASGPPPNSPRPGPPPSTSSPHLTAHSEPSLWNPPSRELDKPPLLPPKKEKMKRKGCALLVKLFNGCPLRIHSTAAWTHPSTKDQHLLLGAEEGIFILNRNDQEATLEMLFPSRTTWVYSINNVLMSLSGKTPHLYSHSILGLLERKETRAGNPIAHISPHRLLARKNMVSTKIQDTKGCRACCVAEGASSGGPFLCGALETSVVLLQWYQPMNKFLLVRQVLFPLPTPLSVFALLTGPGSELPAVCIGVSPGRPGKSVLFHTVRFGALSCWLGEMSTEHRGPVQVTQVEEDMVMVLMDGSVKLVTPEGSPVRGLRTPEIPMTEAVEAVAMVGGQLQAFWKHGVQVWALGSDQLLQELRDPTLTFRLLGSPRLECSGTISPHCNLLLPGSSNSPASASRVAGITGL
Protein cereblon/Mitogen-activated protein kinase kinase kinase kinase 1, sequence (Q96SW2 whole entry, looked up): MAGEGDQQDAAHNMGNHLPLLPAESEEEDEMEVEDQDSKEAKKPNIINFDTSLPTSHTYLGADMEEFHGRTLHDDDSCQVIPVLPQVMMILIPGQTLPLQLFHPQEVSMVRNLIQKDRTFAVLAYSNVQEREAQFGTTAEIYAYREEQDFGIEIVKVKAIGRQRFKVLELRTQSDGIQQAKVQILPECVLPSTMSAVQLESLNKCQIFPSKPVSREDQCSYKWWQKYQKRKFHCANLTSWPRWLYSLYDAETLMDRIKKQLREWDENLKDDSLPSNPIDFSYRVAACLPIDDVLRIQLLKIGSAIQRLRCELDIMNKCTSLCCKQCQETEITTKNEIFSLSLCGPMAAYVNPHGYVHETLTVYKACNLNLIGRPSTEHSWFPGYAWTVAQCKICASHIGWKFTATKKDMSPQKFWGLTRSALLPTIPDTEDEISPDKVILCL

- bioavailability at 24 h [1]: 19.2%
- Drug metabolism [3]: metabolite_detected
- Drug uptake [4]: Active
- microsomal CLint at 1 µM [5]: 5.62 µL/min/mg
- Vd [6]: 0.659 L/kg
- microsomal CLint at 1 µM [7]: 20.3 µL/min/mg
- AUC(0-inf) [9]: 0.894 µg·h/mL
- Papp A→B at 2 h, 10 µM [10]: 1.6 nm/s
- Papp B→A at 2 h, 10 µM [11]: 1.12 nm/s
- EC50 [12]: 0.0326 µM
- C0 [13]: 0.794 µg/mL
- microsomal CLint at 1 µM [16]: 13.4 µL/min/mg
- DC50 [17]: 0.00563 µM
- Vz [18]: 0.121 L/kg
- half-life at 1.5 h, 1 µM [19]: 6.02 h
- Tmax [20]: 2.67 h
- Tmax [21]: 10 h
- Cmax at 336 h [22]: 0.0642 µg/mL
- fraction unbound at 6 h, 10 µM [23]: 0.001
- AUC(0-inf) [24]: 0.996 µg·h/mL
- Cmax at 24 h [26]: 0.0639 µg/mL
- Drug uptake [27]: Active
- Vd [29]: 0.834 L/kg
- clearance at 24 h [30]: 0.25 L/h/kg
- half-life at 24 h [31]: 3.44 h
- microsomal CLint at 1 µM [35]: 3.48 µL/min/mg
- Emax [36]: 94%
- half-life at 24 h [38]: 4.86 h
- Drug uptake [39]: Active
- Vdss [40]: 0.386 L/kg
SMILES: O=C1CCN(c2cc(C(=O)N3CCC(CC4CCN(c5ccc(-c6cnc7[nH]cc(-c8cnn(CC(F)(F)F)c8)c7n6)cn5)CC4)CC3)ccc2Cl)C(=O)N1
- Activity [2]: 48.76%
- inhibition in vivo at 0.1 mg/kg [8]: 28.5%
- Activity [14]: 42.22%
- Activity [15]: 1277.79 mm3
- Activity [25]: Non-toxic
- Activity [28]: Dose-dependent-effect; Twice Daily Dose Was Slightly Better Than Once Daily
- Activity [32]: 1.56 g
- inhibition in vivo at 0.5 mg/kg [33]: 91%
- Activity [34]: 0.24 g
- Activity [37]: Non-toxic
- Activity [41]: Non-toxic
- inhibition in vivo at 100 mg/kg [42]: 56.9%
